Where two headings read alike, the source gives them in different places.
Experiments:
Uromyces appendiculatus = test: In vivo preventive test on Uromyces appendiculatus (bean rust); settings: 240 h, sprayed 72 hours before inoculation, evaluated 10 days after inoculation, read-out: efficacy; for pest or weed control at 31 ppm: 31 ppm of active ingredient; for pest or weed control at 125 ppm: 125 ppm of active ingredient; for pest or weed control at 500 ppm: 500 ppm of active ingredient
Procedure, shortened: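 Young bean plants sprayed with compound in acetone/DMSO/Tween diluted in water, then inoculated 72 h later with spore suspension. Incubated 24 h at 20° C., 100% RH, then 9 days at 20° C., 70-80% RH. Efficacy scored 10 days post-inoculation, 0% = untreated-control level, 100% = no disease.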

[1] = test system: Pseudomonas syringae pv. tomato; test: Pseudomonas syringae pv. tomato in vitro cell test; assay type: cell-based; settings: 20 ppm of active ingredient, 24 h of incubation, read-out: efficacy (inhibition of bacteria growth; no direct activity)
Procedure, shortened: (§1)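 Bacteria from liquid pre-culture diluted to set OD in LB broth and exposed to compounds dissolved in DMSO (final ≤1%). After 24 h, growth read by absorbance; inhibition derived relative to compound-free control wells.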

Peronospora parasitica = test: In vivo preventive test on Peronospora parasitica (Crucifer downy mildew) on cabbage; settings: Hyaloperonospora parasitica, 120 h, sprayed 72 hours before inoculation, evaluated 5 days after inoculation, read-out: efficacy; for pest or weed control at 31 ppm: 31 ppm of active ingredient; for pest or weed control at 125 ppm: 125 ppm of active ingredient; for pest or weed control at 500 ppm: 500 ppm of active ingredient
Procedure, shortened: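 Young cabbage plants were sprayed with compound in aqueous acetone/DMSO/Tween, then inoculated 72 h later with P. parasitica spores and held 5 days at 20 °C, 100% RH. Efficacy scored 5 days post-inoculation: 0% equals solvent-treated controls, 100% means no disease.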

[2] = test system: salicylate responsive promoter sequence of the PR1 (pathogenesis-related protein I) gene (AT2G14610); test: Induction of defense gene expression in Arabidopsis thaliana (PR1 promoter-GFP reporter plants); assay type: in vivo; settings: 72 h, 3rd day after spraying, mock treated leaves set as 1.00, read-out: relative fluorescence value
Procedure, shortened: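 Transgenic A. thaliana carrying GFP under the salicylate-responsive PR1 promoter, grown five days, then sprayed with compounds. Whole-plant fluorescence imaged and quantified on day 3 post-spray, expressed relative to mock-treated leaf background set at 1.00.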

Alternaria alternata = Alternaria alternata in vitro cell test; assay type: cell-based; settings: 120 h, 5 days incubation, read-out: efficacy (inhibition of fungal growth; no direct activity); for inhibition at 5 ppm: 5 ppm of active ingredient; for inhibition at 20 ppm: 20 ppm of active ingredient
Procedure, shortened: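 A. alternata spores in glucose/peptone/yeast-extract liquid medium were exposed to DMSO-solubilized compound (final DMSO ≤1%). After 5 days incubation, mycelium growth read spectrometrically; inhibition derived from absorbance relative to fungicide-free control wells.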

[3] = LogP by HPLC on reversed phase columns (EEC directive 79/831 Annex V.A8); assay type: physicochemical; settings: reversed phase HPLC columns
Procedure, shortened: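 Reversed-phase HPLC, calibrated with straight-chain alkan-2-ones (C3–C16) of known LogP; values by linear interpolation of retention times between successive alkanones. Multiple values from one method are joined by "+"; lambda-max taken from 200–400 nm UV spectra at chromatographic peaks.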

[4] = test system: Xanthomonas campestris pv. campestris; test: In vivo preventive test on Xanthomonas campestris pv. campestris (black rot on cabbage); settings: Xanthomonas campestris, sprayed 72 hours before inoculation, evaluated 8 or 10 days after inoculation, read-out: efficacy; for pest or weed control at 31 ppm: 31 ppm of active ingredient; for pest or weed control at 125 ppm: 125 ppm of active ingredient; for pest or weed control at 500 ppm: 500 ppm of active ingredient
Procedure, shortened: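 Young cabbage plants sprayed preventively with compound formulated in acetone/DMSO/Tween and diluted in water, then inoculated 72 h later with a bacterial spray. Kept at 27° C, 95% relative humidity; disease scored after 8 or 10 days as % efficacy versus solvent-treated controls (0% = control, 100% = no disease).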

[5] = test system: Xanthomonas campestris pv. campestris; test: Xanthomonas campestris pv. campestris in vitro cell test; assay type: cell-based; settings: 24 h of incubation, read-out: efficacy (inhibition of bacteria growth; no direct activity); for inhibition at 5 ppm: 5 ppm of active ingredient; for inhibition at 20 ppm: 20 ppm of active ingredient
Procedure, shortened: as §1

[6] = test system: Colletotrichum lindemuthianum; test: Colletotrichum lindemuthianum in vitro cell test; assay type: cell-based; settings: 144 h, 6 days incubation, read-out: efficacy (inhibition of fungal growth; no direct activity); for inhibition at 5 ppm: 5 ppm of active ingredient; for inhibition at 20 ppm: 20 ppm of active ingredient
Procedure, shortened: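 C. lindemuthianum spore suspension grown in liquid glucose/peptone/yeast-extract medium with compound (final DMSO ≤1%). After 6 days, mycelial growth measured by absorbance; inhibition calculated versus fungicide-free control wells.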

[7] = preparation examples, method not indicated, read-out: Log P

| Compound | chromatographic logP ([3]; method [a]) | chromatographic logP [3, 7] | pest or weed control at 31 ppm (Uromyces appendiculatus) [%] | pest or weed control at 125 ppm (Uromyces appendiculatus) [%] | pest or weed control at 500 ppm (Uromyces appendiculatus) [%] | inhibition at 20 ppm [1] [%] | pest or weed control at 31 ppm (Peronospora parasitica) [%] | pest or weed control at 125 ppm (Peronospora parasitica) [%] | pest or weed control at 500 ppm (Peronospora parasitica) [%] | fold induction at 75 ppm [2] | fold induction at 300 ppm [2] | inhibition at 5 ppm (Alternaria alternata) [%] | inhibition at 20 ppm (Alternaria alternata) [%] | pest or weed control at 31 ppm [4] [%] | pest or weed control at 125 ppm [4] [%] | pest or weed control at 500 ppm [4] [%] | inhibition at 5 ppm [5] [%] | inhibition at 5 ppm [6] [%] | inhibition at 20 ppm [5] [%] | inhibition at 20 ppm [6] [%] |
| --- | --- | --- | --- | --- | --- | --- | --- | --- | --- | --- | --- | --- | --- | --- | --- | --- | --- | --- | --- | --- |
| CCOC(=O)C(C#N)NC(=O)c1sc(Br)c(Br)c1C (centres unmarked) [I.077] | 3.22 | – | 70 to 79 | 90 to 100 | 90 to 100 | ≤ 30 | 80 to 89 | 90 to 100 | 90 to 100 | > 2 | > 2 | ≤ 30 | ≤ 30 | 80 to 89 | 80 to 89 | – | ≤ 30 | ≤ 30 | ≤ 30 | ≤ 30 |
| Cc1c(C(=O)NC(C(=O)O)C2CC2)sc(Br)c1Br (centres unmarked) [I.080, cyclopropyl{[(4,5-dibromo-3-methyl-2-thienyl)carbonyl]amino}acetic acid] | – | 2.67 | – | – | 90 to 100 | ≤ 30 | – | 90 to 100 | 90 to 100 | > 2 | > 2 | ≤ 30 | ≤ 30 | 70 to 79 | 80 to 89 | 90 to 100 | ≤ 30 | ≤ 30 | ≤ 30 | ≤ 30 |
| CCOC(=O)C1(NC(=O)c2sc(Cl)c(Cl)c2C)CCC1 [I.047] | 3.67 | – | 80 to 89 | 90 to 100 | 90 to 100 | ≤ 30 | 90 to 100 | 90 to 100 | 90 to 100 | – | > 2 | ≤ 30 | ≤ 30 | – | 80 to 89 | – | ≤ 30 | ≤ 30 | ≤ 30 | – |
| COC(=O)CC[C@H](NC(=O)c1sc(Cl)c(Cl)c1C)C(=O)OC [I.122] | 3.08 | – | – | – | 90 to 100 | ≤ 30 | 90 to 100 | 90 to 100 | 90 to 100 | > 2 | > 2 | ≤ 30 | ≤ 30 | 90 to 100 | 90 to 100 | 90 to 100 | ≤ 30 | ≤ 30 | ≤ 30 | ≤ 30 |
| Cc1c(C(=S)NC2(C(=O)O)CC2)sc(Cl)c1Cl [I.060] | 2.84 | – | 90 to 100 | 90 to 100 | 90 to 100 | ≤ 30 | 90 to 100 | 90 to 100 | 90 to 100 | > 2 | > 2 | ≤ 30 | ≤ 30 | – | 70 to 79 | 80 to 89 | ≤ 30 | ≤ 30 | ≤ 30 | ≤ 30 |

Second part, led by results:

| chromatographic logP ([3]; method [a]) | chromatographic logP [3, 7] | Compound | pest or weed control at 31 ppm (Uromyces appendiculatus) [%] | pest or weed control at 125 ppm (Uromyces appendiculatus) [%] | pest or weed control at 500 ppm (Uromyces appendiculatus) [%] | inhibition at 20 ppm [1] [%] | pest or weed control at 31 ppm (Peronospora parasitica) [%] | pest or weed control at 125 ppm (Peronospora parasitica) [%] | pest or weed control at 500 ppm (Peronospora parasitica) [%] | fold induction at 75 ppm [2] | fold induction at 300 ppm [2] | inhibition at 5 ppm (Alternaria alternata) [%] | inhibition at 20 ppm (Alternaria alternata) [%] | pest or weed control at 31 ppm [4] [%] | pest or weed control at 125 ppm [4] [%] | pest or weed control at 500 ppm [4] [%] | inhibition at 5 ppm [5] [%] | inhibition at 5 ppm [6] [%] | inhibition at 20 ppm [5] [%] | inhibition at 20 ppm [6] [%] |
| --- | --- | --- | --- | --- | --- | --- | --- | --- | --- | --- | --- | --- | --- | --- | --- | --- | --- | --- | --- | --- |
| 3.41 | – | COC(=O)C(NC(=O)c1sc(Br)c(Br)c1C)C1CC1 (centres unmarked) [I.032] | 90 to 100 | 90 to 100 | 90 to 100 | ≤ 30 | 80 to 89 | 90 to 100 | 90 to 100 | > 2 | > 2 | ≤ 30 | ≤ 30 | 90 to 100 | 90 to 100 | 90 to 100 | ≤ 30 | ≤ 30 | – | – |
| – | 3.31 | COC(=O)C(NC(=O)c1sc(Cl)c(Cl)c1C)C1CC1 (centres unmarked) [I.081, methyl cyclopropyl{[(4,5-dichloro-3-methyl-2-thienyl)carbonyl]amino}acetate] | – | 90 to 100 | 90 to 100 | ≤ 30 | 80 to 89 | 90 to 100 | 90 to 100 | > 2 | > 2 | ≤ 30 | ≤ 30 | 80 to 89 | 90 to 100 | – | ≤ 30 | ≤ 30 | ≤ 30 | ≤ 30 |
| 2.59 | – | Cc1c(C(=O)NC(C(=O)O)C2CC2)sc(Cl)c1Cl (centres unmarked) [I.095] | 80 to 89 | 90 to 100 | 90 to 100 | ≤ 30 | 80 to 89 | 90 to 100 | 90 to 100 | > 2 | > 2 | ≤ 30 | ≤ 30 | 70 to 79 | 90 to 100 | 90 to 100 | ≤ 30 | ≤ 30 | ≤ 30 | ≤ 30 |

Source: patent US12509437B2, “Substituted thiophene carboxamides and derivatives thereof as microbicides” (Bayer Aktiengesellschaft, priority 2019, dated 2025)
